Reference: patent US20080287375A1, “Selective Glycosidase Inhibitors, Methods of Making Inhibitors, and Uses Thereof” (SIMON FRASER UNIVERSITY, priority 2005, published 2008)
Entries after “also recorded” stand apart in the source; their conditions may differ.

Legend:
[1] = test system: O-GlcNAc modified proteins in rat tissues; experiment: Clearance rate: time course of tissue O-GlcNAc levels in rats after tail vein injection; type: in vivo; details: 50 mg kg^−1 tail vein
Protocol: To obtain information for how rapid the inhibitor is cleared from tissues, five 10-week old Sprague-Dawley rats were given a tail vein injection of the inhibitor (50 mg kg^−1). The animals were sacrificed sequentially 3, 7, 24, 27, and 32 hours following the injection. Two additional rats were used as controls. One rat was sacrificed immediately before the others received their injections in order to obtain information about the normal levels of O-GlcNAc modified proteins. Also, one rat was injected with sterilized PBS (pH 7.4) along with the other rats and sacrificed at the end of the experiment (32 hours). Tissue collection, homogenization, and western blot analyses were done in the same matter as described above.

[2] = test system: O-GlcNAc-modified proteins in COS-7 cells; experiment: Western blot of O-GlcNAc-modified proteins in COS-7 cells cultured with inhibitors; type: cell-based; details: 50 μM inhibitor
Protocol: COS-7 cells were cultured in DMEM medium (Invitrogen) supplemented with 5-10% FBS (Invitrogen). Aliquots of inhibitors (50 μL of a stock in 95% ethanol) were delivered onto tissue culture plates and the ethanol was evaporated. The cells were incubated at 37° C. for 40 hours at which time they reached approximately 80% confluence. […] COS-7 cells were cultured to 25% confluence in 5% FBS and an aliquot (100 μL) of inhibitor dissolved in media and filter sterilized was added to each plate to yield a final concentration of 50 μM of inhibitor. COS-7 cells (2×10 cm plates) were harvested at the appropriate times by scraping and were pooled by centrifugation (200×g, 10 min). Cells were washed once with PBS, pH 7.0 (10 mL) and pelleted (200×g, 10 min). The cells could be frozen at −80° C. at this point. Control cultures without inhibitors were treated in the same manner.
A culture of control cells was treated in the same manner as follows but the cultures contained no inhibitor. Cells were harvested as described above. Frozen cells were thawed at 4° C., and cold lysis buffer (1 mL of 50 mM Tris, pH 8.0 containing 150 mM NaCl, 1 mM EDTA, 1 mM PMSF, 1% NP-40, 0.5% sodium deoxycholate, and 1 mM of inhibitor 90) was added. After 10 minutes at 4° C. the solution was centrifuged at 14,000 rpm in an Eppendorf 5415C microcentrifuge and the supernatant was collected. SDS/PAGE loading buffer was added to an aliquot (15 μL) of each sample, and after heating at 96° C. aliquots were loaded onto 10% or 12% Tris-HCl polyacrylamide gels. After electrophoresis, the samples were electroblotted to nitrocellulose membrane (0.45 μm, Bio-Rad). Transfer was verified by visual inspection of the transfer of prestained markers (Dual Colour Precision Plus Protein Standard—Biorad). The membrane was blocked by using 5% BSA (fraction V, Sigma) in PBS (blocking buffer A for samples probed with mouse anti-O-GlcNAc monoclonal IgM antibody (MAb CTD 110.6—Covance)) or 5% low-fat dry powdered milk (blocking buffer B for samples probed with anti-β-actin), pH 7.4, containing 0.1% Tween 20 for 1 h at room temperature or overnight at 4° C. The blocking solution was decanted, and a solution of blocking buffer A containing MAb CTD 110.6 (1:2500 of the stock) or blocking buffer B containing mouse monoclonal anti-β-actin IgG (Clone AC-40—Sigma) was added (1:1000 dilution) as appropriate. The membrane was incubated at room temperature for 1 h or overnight at 4° C. after which the blocking buffer was decanted and the membrane was rinsed with PBS, pH 7.4, containing 0.1% Tween 20 (wash buffer). Membranes were then rinsed for 2×5 min and 3×15 min with wash buffer. For immunological detection of O-GlcNAc, the membrane was incubated in blocking buffer A for 1 hour at RT and, after washing, the membrane was incubated with a secondary goat anti-mouse-IgM-HRP-conjugate (1:2500, Santa Cruz Biotech) for one hour at RT or 4° C. overnight in blocking solution. For detection of β-actin levels, the membrane was incubated with a secondary goat anti-mouse-IgG-HRP conjugate (1:100000, Sigma) for one hour at RT or 4° C. overnight in blocking solution B. Membranes were washed and detection of membrane bound goat anti-mouse-IgG-HRP conjugate was accomplished by chemiluminescent detection using the SuperSignal West Pico Chemiluminescent Detection Kit (Pierce) and film (Kodak Biomax MR).

O-GlcNAcase = molecular target: T1, O-GlcNAcase (Homo sapiens, UniProt O60502); experiment: biochemical
T1 sequence (O60502 1-916): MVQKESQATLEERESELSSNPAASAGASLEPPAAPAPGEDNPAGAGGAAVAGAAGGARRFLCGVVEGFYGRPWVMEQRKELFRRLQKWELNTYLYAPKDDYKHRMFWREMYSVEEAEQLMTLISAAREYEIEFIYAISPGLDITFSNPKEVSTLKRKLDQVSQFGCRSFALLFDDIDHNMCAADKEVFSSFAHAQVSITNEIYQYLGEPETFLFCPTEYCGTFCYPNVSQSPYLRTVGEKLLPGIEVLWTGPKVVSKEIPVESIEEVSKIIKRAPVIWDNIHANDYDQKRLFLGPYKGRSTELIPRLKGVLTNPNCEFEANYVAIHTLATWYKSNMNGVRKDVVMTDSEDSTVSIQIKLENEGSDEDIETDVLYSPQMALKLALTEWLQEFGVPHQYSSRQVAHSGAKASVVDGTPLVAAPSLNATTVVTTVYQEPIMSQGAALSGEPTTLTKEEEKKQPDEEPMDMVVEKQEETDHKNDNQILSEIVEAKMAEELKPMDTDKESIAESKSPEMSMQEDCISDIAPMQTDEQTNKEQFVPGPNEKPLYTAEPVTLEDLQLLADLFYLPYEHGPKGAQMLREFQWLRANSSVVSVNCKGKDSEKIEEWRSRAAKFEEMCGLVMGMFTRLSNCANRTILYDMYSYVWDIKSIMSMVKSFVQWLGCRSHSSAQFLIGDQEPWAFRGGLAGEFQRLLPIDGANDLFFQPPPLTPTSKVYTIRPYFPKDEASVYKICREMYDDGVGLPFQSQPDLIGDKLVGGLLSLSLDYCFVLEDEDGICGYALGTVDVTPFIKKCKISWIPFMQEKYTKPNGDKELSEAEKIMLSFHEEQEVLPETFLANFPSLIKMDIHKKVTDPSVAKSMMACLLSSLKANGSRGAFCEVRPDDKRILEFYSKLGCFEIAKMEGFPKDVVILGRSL

Compound: CCCC1=N[C@@H]2[C@@H](O)[C@H](O)[C@@H](CO)O[C@@H]2S1 [Compound 9c, 1,2-dideoxy-2′-propyl-α-D-glucopyranoso-[2,1-d]-2′-thiazoline]
- cellular levels of O-GlcNAc modified proteins in brain, 24 hours after injection [1]: dropped
- cellular levels of O-GlcNAc modified proteins in brain, seven hours after injection [1]: remained high
- cellular levels of O-GlcNAc modified proteins in brain, three hours after injection [1]: marked increases
- time after which O-GlcNAc levels return to normal levels ([1]; brain): about 32 hours
- time to elevate O-GlcNAc levels in tissues ([1]; brain and muscle): < 3 h
- time within which the inhibitor is cleared from the tissues and O-GlcNAc levels return to normal ([1]; brain and muscle): 24 to 32 h
- cellular levels of O-GlcNAc-modified proteins compared to control ([2]; 40 hours, Western blot): Marked increases; also recorded: increase in cellular levels of O-GlcNAc-modified proteins
- levels of O-GlcNAc-modified proteins after one hour of exposure ([2]; one hour): increases in levels of O-GlcNAc-modified proteins were observed
- levels of O-GlcNAc-modified proteins as a function of time ([2]; over 40 hours): clear time dependent increase
- Ki (O-GlcNAcase): 230 nM
